According to paper PMC6099886 (Proceedings of the National Academy of Sciences of the …, 2018):
Read-outs that look alike come from different tables or passages of the source. *1 amine or outer side, *2 acyl side, *3 side chain or, on linkers, in order; H or OH if unused. Where a SMILES comes first, the peptide text is derived from it. Bridges are numbered along the chain shown (N, C = ends). Roman numbers before positions name the chains, in order. [ ]: non-standard residue; d: D form. Actinocin(9to1) = Cc1c2oc3c(C)ccc(C(=O)[*:1])c3nc-2c(C(=O)[*:2])c(N)c1=O; NMeV = CN[C@H](C(=O)O)C(C)C; Sar = CNCC(=O)O

Columns and labels:
DDR2 = details: cited from earlier work
[1] = cited from earlier work
DDR2-His = target: T1, DDR2-His (Homo sapiens, UniProt Q16832); assay: Solid-phase binding assay of DDR2-His; details: 25 nM DDR2-His, collagen peptide
T1 sequence (Q16832 22-398): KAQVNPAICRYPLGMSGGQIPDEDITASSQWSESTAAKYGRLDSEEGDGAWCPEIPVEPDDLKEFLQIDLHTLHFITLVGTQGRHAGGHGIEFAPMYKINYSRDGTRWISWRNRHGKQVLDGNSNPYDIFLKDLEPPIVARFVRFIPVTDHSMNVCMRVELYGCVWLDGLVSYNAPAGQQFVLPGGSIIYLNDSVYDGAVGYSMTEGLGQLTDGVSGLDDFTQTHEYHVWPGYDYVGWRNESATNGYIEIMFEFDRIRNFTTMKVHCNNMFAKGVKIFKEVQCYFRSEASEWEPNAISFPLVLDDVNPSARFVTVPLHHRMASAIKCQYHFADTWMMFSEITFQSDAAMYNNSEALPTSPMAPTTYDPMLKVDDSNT

4T1 GFP/luc cells = assay: Lung colonization after tail vein injection of 4T1 GFP/luc cells in BALB/cJ mice; assay type: in vivo, mouse; details: treated daily, 7 d
[2] = target: the molecule itself
cross-linking = target: the molecule itself; assay: cross-linking
SEC = target: the molecule itself; assay: SEC

Cc1c2oc3c(C)ccc(C(=O)N[C@@H]4C(=O)N[C@H](C(C)C)C(=O)N5CCC[C@H]5C(=O)N(C)CC(=O)N(C)[C@@H](C(C)C)C(=O)O[C@@H]4C)c3nc-2c(C(=O)N[C@@H]2C(=O)N[C@H](C(C)C)C(=O)N3CCC[C@H]3C(=O)N(C)CC(=O)N(C)[C@@H](C(C)C)C(=O)O[C@@H]2C)c(N)c1=O [actinomycin D] (I: T[dV]P[Sar][NMeV] / II: T[dV]P[Sar][NMeV]; ester I:1-I:C, II:1-II:C; linker I:N-II:N via Actinocin(9to1))
DDR2 inhibition in previous in vitro screen (DDR2): weak inhibitor
toxicity profile [1]: high toxicity profile
DDR2 inhibition in ECD solid-phase binding assay (in words) (DDR2-His): inhibits DDR2

Nc1c(C(=O)O)c2nc3c(C(=O)O)cccc3oc-2cc1=O [cinnabarinic acid]
DDR2 inhibition in ECD solid-phase binding assay (in words) (DDR2-His): inactive
lung colonization by 4T1 GFP/luc cells (4T1 GFP/luc cells): no effect

B1: DDR2 F96A/T98A expressed as a full-length receptor in HEK293 cells (receptor, UniProt Q16832 22-855, looked up)
chain: KAQVNPAICRYPLGMSGGQIPDEDITASSQWSESTAAKYGRLDSEEGDGAWCPEIPVEPDDLKEFLQIDLHTLHAIALVGTQGRHAGGHGIEFAPMYKINYSRDGTRWISWRNRHGKQVLDGNSNPYDIFLKDLEPPIVARFVRFIPVTDHSMNVCMRVELYGCVWLDGLVSYNAPAGQQFVLPGGSIIYLNDSVYDGAVGYSMTEGLGQLTDGVSGLDDFTQTHEYHVWPGYDYVGWRNESATNGYIEIMFEFDRIRNFTTMKVHCNNMFAKGVKIFKEVQCYFRSEASEWEPNAISFPLVLDDVNPSARFVTVPLHHRMASAIKCQYHFADTWMMFSEITFQSDAAMYNNSEALPTSPMAPTTYDPMLKVDDSNTRILIGCLVAIIFILLAIIVIILWRQFWQKMLEKASRRMLDDEMTVSLSLPSDSSMFNNNRSSSPSEQGSNSTYDRIFPLRPDYQEPSRLIRKLPEFAPGEEESGCSGVVKPVQPSGPEGVPHYAEADIVNLQGVTGGNTYSVPAVTMDLLSGKDVAVEEFPRKLLTFKEKLGEGQFGEVHLCEVEGMEKFKDKDFALDVSANQPVLVAVKMLRADANKNARNDFLKEIKIMSRLKDPNIIHLLAVCITDDPLCMITEYMENGDLNQFLSRHEPPNSSSSDVRTVSYTNLKFMATQIASGMKYLSSLNFVHRDLATRNCLVGKNYTIKIADFGMSRNLYSGDYYRIQGRAVLPIRWMSWESILLGKFTTASDVWAFGVTLWETFTFCQEQPYSQLSDEQVIENTGEFFRDQGRQTYLPQPAICPDSVYKLMLSCWRRDTKNRPSFQEIHLLLLQQGDE
stoichiometry N [2]: 2

B2: full-length DDR2 expressed in HEK293 cells (receptor, UniProt Q16832 22-855, looked up)
chain: KAQVNPAICRYPLGMSGGQIPDEDITASSQWSESTAAKYGRLDSEEGDGAWCPEIPVEPDDLKEFLQIDLHTLHFITLVGTQGRHAGGHGIEFAPMYKINYSRDGTRWISWRNRHGKQVLDGNSNPYDIFLKDLEPPIVARFVRFIPVTDHSMNVCMRVELYGCVWLDGLVSYNAPAGQQFVLPGGSIIYLNDSVYDGAVGYSMTEGLGQLTDGVSGLDDFTQTHEYHVWPGYDYVGWRNESATNGYIEIMFEFDRIRNFTTMKVHCNNMFAKGVKIFKEVQCYFRSEASEWEPNAISFPLVLDDVNPSARFVTVPLHHRMASAIKCQYHFADTWMMFSEITFQSDAAMYNNSEALPTSPMAPTTYDPMLKVDDSNTRILIGCLVAIIFILLAIIVIILWRQFWQKMLEKASRRMLDDEMTVSLSLPSDSSMFNNNRSSSPSEQGSNSTYDRIFPLRPDYQEPSRLIRKLPEFAPGEEESGCSGVVKPVQPSGPEGVPHYAEADIVNLQGVTGGNTYSVPAVTMDLLSGKDVAVEEFPRKLLTFKEKLGEGQFGEVHLCEVEGMEKFKDKDFALDVSANQPVLVAVKMLRADANKNARNDFLKEIKIMSRLKDPNIIHLLAVCITDDPLCMITEYMENGDLNQFLSRHEPPNSSSSDVRTVSYTNLKFMATQIASGMKYLSSLNFVHRDLATRNCLVGKNYTIKIADFGMSRNLYSGDYYRIQGRAVLPIRWMSWESILLGKFTTASDVWAFGVTLWETFTFCQEQPYSQLSDEQVIENTGEFFRDQGRQTYLPQPAICPDSVYKLMLSCWRRDTKNRPSFQEIHLLLLQQGDE
stoichiometry N (cross-linking): 2

B3: DDR2 F96A/T98A double mutant ECD, His-tagged (domain or fragment, UniProt Q16832 22-399, looked up)
chain: KAQVNPAICRYPLGMSGGQIPDEDITASSQWSESTAAKYGRLDSEEGDGAWCPEIPVEPDDLKEFLQIDLHTLHAIALVGTQGRHAGGHGIEFAPMYKINYSRDGTRWISWRNRHGKQVLDGNSNPYDIFLKDLEPPIVARFVRFIPVTDHSMNVCMRVELYGCVWLDGLVSYNAPAGQQFVLPGGSIIYLNDSVYDGAVGYSMTEGLGQLTDGVSGLDDFTQTHEYHVWPGYDYVGWRNESATNGYIEIMFEFDRIRNFTTMKVHCNNMFAKGVKIFKEVQCYFRSEASEWEPNAISFPLVLDDVNPSARFVTVPLHHRMASAIKCQYHFADTWMMFSEITFQSDAAMYNNSEALPTSPMAPTTYDPMLKVDDSNTR
stoichiometry N (SEC): 2
